Test results: the supplement of paper PMC10627819
Converted amounts (≈) assume the structure as drawn.

Columns and labels:
S. aureus Newman [1] = assay: fitness (endpoint OD595 vs no drug) (fraction); higher = more growth
Summary of the method: (§1)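 Volumes were 30 µl per well, or 55 µl for S. pneumoniae, in 384-well plates inoculated at OD595 0.01. Media were TSB, LB Lennox or CY at 37 °C, and OD595 was read every 30 min for 14 h with first-reading background subtraction. Fitness is the ratio of optical density at stationary-phase entry to the robust mean of no-drug controls. That ratio is capped at 1.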

S. pneumoniae D39V [2] = assay: as above
Summary of the method: as §1

B. subtilis 168 [3] = assay: as above
Summary of the method: as §1

S. aureus Newman [4] = test system: S. aureus Newman
S. aureus DSM 20231 [5] = test system: S. aureus DSM 20231
S. pneumoniae D39V [6] = test system: S. pneumoniae D39V
S. aureus DSM 20231 [7] = assay: fitness (endpoint OD595 vs no drug) (fraction); higher = more growth
Summary of the method: as §1

S. aureus Newman [8] = assay: Bliss interaction score (quartile over a dose matrix) (fitness difference); higher = more antagonism (negative = synergy)
Summary of the method: (§2)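 Fitness here means normalised growth, inferred for single drugs from the combination data. Growth was OD595 at entry into stationary phase, divided by the plate's robust no-drug mean and capped at 1. The Bliss score is observed minus expected fitness, with the expectation being the product, and its quartiles span technical, biological and donor/recipient replicates.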

S. aureus DSM 20231 [9] = assay: as above
Summary of the method: as §2

S. pneumoniae D39V [10] = assay: as above
Summary of the method: as §2

B. subtilis 168 [11] = assay: as above
Summary of the method: as §2
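Wherever Bliss interaction score (quartile over a dose matrix) is given: first quartile when negative (synergy) and third quartile when positive (antagonism).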

CC1=C(C(=O)O)N2C(=O)[C@@H](NC(=O)[C@H](N)c3ccccc3)[C@H]2SC1 [Cephalexin]
fitness
Conditions	0.125 µg/mL	0.25 µg/mL	0.5 µg/mL	1 µg/mL	2 µg/mL	4 µg/mL
B. subtilis 168 [3]	0.925	0.917	0.937	0.939	–	–
S. aureus Newman [1]	–	0.987	≥ 1	≥ 1	≥ 1	–
S. pneumoniae D39V [2]	–	–	–	0.649	0.29	0.0479

Conditions	MIC [µg/mL]
S. aureus DSM 20231 [5]	4 (≈ 11.5 µM)
S. aureus Newman [4]	4 (≈ 11.5 µM)
S. pneumoniae D39V [6]	4 (≈ 11.5 µM)

CC[C@H]1OC(=O)[C@H](C)C(=O)[C@H](C)[C@@H](O[C@@H]2O[C@H](C)C[C@H](N(C)C)[C@H]2O)[C@](C)(OC)C[C@@H](C)C(=O)[C@H](C)[C@H]2N(CCCCn3cnc(-c4cccnc4)c3)C(=O)O[C@]12C [Telithromycin]
Conditions	MIC [µg/mL]
S. aureus DSM 20231 [5]	0.15 (≈ 0.185 µM)
S. aureus Newman [4]	0.15 (≈ 0.185 µM)
S. pneumoniae D39V [6]	0.04 (≈ 0.0493 µM)

Cc1onc(-c2ccccc2)c1C(=O)N[C@@H]1C(=O)N2[C@@H]1SC(C)(C)[C@@H]2C(=O)O [Oxacillin] + Cc1cc(NS(=O)(=O)c2ccc(N)cc2)no1 [Sulfamethoxazol]
fitness
Conditions	partner 1 µg/mL	partner 2 µg/mL	partner 4 µg/mL
B. subtilis 168 [3], first compound 0.002 µg/mL	0.996	0.968	≥ 1
B. subtilis 168 [3], first compound 0.004 µg/mL	0.988	0.947	0.984
B. subtilis 168 [3], first compound 0.008 µg/mL	0.93	0.929	0.915
S. aureus DSM 20231 [7], first compound 0.0156 µg/mL	0.795	0.865	0.866
S. aureus DSM 20231 [7], first compound 0.0312 µg/mL	0.636	0.65	0.719
S. aureus DSM 20231 [7], first compound 0.0625 µg/mL	0.469	0.462	0.485
S. aureus Newman [1], first compound 0.0156 µg/mL	0.748	0.686	–
S. aureus Newman [1], first compound 0.0312 µg/mL	0.758	0.688	–
S. aureus Newman [1], first compound 0.0625 µg/mL	0.63	0.624	0.556
S. pneumoniae D39V [2], first compound 0.01 µg/mL	0.954	0.961	0.966
S. pneumoniae D39V [2], first compound 0.02 µg/mL	0.888	0.904	0.915
S. pneumoniae D39V [2], first compound 0.04 µg/mL	0.273	0.32	0.395

one replicate
Conditions	fitness
B. subtilis 168 [3], first compound 0.0078 µg/mL, partner 0.5 µg/mL	0.943
B. subtilis 168 [3], first compound 0.0078 µg/mL, partner 1 µg/mL	0.864
B. subtilis 168 [3], first compound 0.0078 µg/mL, partner 2 µg/mL	0.896
B. subtilis 168 [3], first compound 0.0155 µg/mL, partner 0.5 µg/mL	0.997
B. subtilis 168 [3], first compound 0.0155 µg/mL, partner 1 µg/mL	0.755
B. subtilis 168 [3], first compound 0.0155 µg/mL, partner 2 µg/mL	0.877
B. subtilis 168 [3], first compound 0.031 µg/mL, partner 0.5 µg/mL	0.921
B. subtilis 168 [3], first compound 0.031 µg/mL, partner 1 µg/mL	0.9
B. subtilis 168 [3], first compound 0.031 µg/mL, partner 2 µg/mL	0.866
B. subtilis 168 [3], first compound 0.075 µg/mL, partner 1 µg/mL	0.49
B. subtilis 168 [3], first compound 0.075 µg/mL, partner 2 µg/mL	0.454
B. subtilis 168 [3], first compound 0.075 µg/mL, partner 4 µg/mL	0.529
B. subtilis 168 [3], first compound 0.15 µg/mL, partner 1 µg/mL	0.0391
B. subtilis 168 [3], first compound 0.15 µg/mL, partner 2 µg/mL	0.0283
B. subtilis 168 [3], first compound 0.15 µg/mL, partner 4 µg/mL	0.0224
B. subtilis 168 [3], first compound 0.3 µg/mL, partner 1 µg/mL	0.0079
B. subtilis 168 [3], first compound 0.3 µg/mL, partner 2 µg/mL	0.0431
B. subtilis 168 [3], first compound 0.3 µg/mL, partner 4 µg/mL	0.0098
S. aureus Newman [1], first compound 0.0156 µg/mL, partner 8 µg/mL	0.9
S. aureus Newman [1], first compound 0.0312 µg/mL, partner 8 µg/mL	0.845
S. aureus Newman [1], first compound 0.0625 µg/mL, partner 8 µg/mL	0.783

Conditions	Bliss interaction score
B. subtilis 168 [11]	0.0542
S. aureus DSM 20231 [9]	-0.0464
S. aureus Newman [8]	-0.0519
S. pneumoniae D39V [10]	0.0796
